One test deals with TNFα. Nature of the test: Cot Monocyte TNFα Cell Based Assay. To be noted: for IC50/EC50 [nM]: EC50 (TNFα): second value of the cell IC50/EC50, TNFα by TR-FRET. Background: In TR-FRET formats the signal depends on donor and acceptor labels being close together.
The next test concerns the target Human Cot (Homo sapiens (Human), UniProt P41279). Nature of the test: High Throughput Cot Biochemical Assay. To be noted: for IC50/EC50 [nM]: IC50 (Cot): first value of the cell IC50/EC50, recombinant human Cot catalytic domain, TR-FRET.
The next test addresses EGFR (Homo sapiens (Human), UniProt P00533). Nature of the test: High Throughput EGFR Biochemical Assay. The note with it: Human EGFR cytoplasmic domain, TR-FRET. How it is done: Example 42: High Throughput EGFR Biochemical Assay
EGFR activity was measured using KinEASE (Cisbio), a time-resolved fluorescence resonance energy transfer (TR-FRET) immunoassay. In this assay, EGFR-catalyzes the phosphorylation of a universal Tyrosine kinase peptide substrate labeled with XL665. Europium conjugated phosphor-tyrosine specific antibody binds the resulting phosphorylated peptide. Formation of phosphorylated peptide is quantified by TR-FRET with Europium as the donor and XL665 the acceptor. The assay was performed in two main steps. The first step is the kinase reaction step and the second step is the detection step with TR-FRET reagents. In brief, test compounds 1:3 serially diluted in DMSO were delivered into Corning white, low volume, non-binding 384 well plates using the Echo 550 acoustic liquid dispenser (Labcyte®). […] After 60 min of incubation at room temperature, 10 μL of Stop and Detect Solution (1:400 Europium Cryptate labeled anti-phosphorylated peptide antibody solution and 125 nM strepavidin-XL665 Tracer in a 50 mM Hepes pH 7.0 detection buffer containing sufficient EDTA) was added.

Where [1] appears, read: Homo sapiens, Monocyte, read-out: EC50 TNF, LPS-stimulated human monocytes, TNFα.

Like-named read-outs stand apart in the source and are kept apart here.

Data on four molecules can be found in patent publication US11066414B2, “Cot modulators and methods of use thereof” (Gilead Sciences, Inc., priority 2015, dated 2021).

The EC50 is the concentration giving half of the maximal effect. In general, IC50 refers to the point on the concentration scale where inhibition reaches its midpoint.

Human Cot, sequence (P41279 30-397): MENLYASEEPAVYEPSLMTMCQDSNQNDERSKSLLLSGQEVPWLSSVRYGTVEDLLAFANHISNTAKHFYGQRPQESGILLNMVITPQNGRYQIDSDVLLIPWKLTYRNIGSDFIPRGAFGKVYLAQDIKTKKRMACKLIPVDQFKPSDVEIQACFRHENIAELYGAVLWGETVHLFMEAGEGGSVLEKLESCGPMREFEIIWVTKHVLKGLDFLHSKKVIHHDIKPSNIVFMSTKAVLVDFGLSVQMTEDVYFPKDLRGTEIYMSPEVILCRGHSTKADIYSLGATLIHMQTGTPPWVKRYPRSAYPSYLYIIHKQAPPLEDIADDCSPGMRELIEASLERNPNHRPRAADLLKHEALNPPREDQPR
EGFR, sequence (P00533 669-1210): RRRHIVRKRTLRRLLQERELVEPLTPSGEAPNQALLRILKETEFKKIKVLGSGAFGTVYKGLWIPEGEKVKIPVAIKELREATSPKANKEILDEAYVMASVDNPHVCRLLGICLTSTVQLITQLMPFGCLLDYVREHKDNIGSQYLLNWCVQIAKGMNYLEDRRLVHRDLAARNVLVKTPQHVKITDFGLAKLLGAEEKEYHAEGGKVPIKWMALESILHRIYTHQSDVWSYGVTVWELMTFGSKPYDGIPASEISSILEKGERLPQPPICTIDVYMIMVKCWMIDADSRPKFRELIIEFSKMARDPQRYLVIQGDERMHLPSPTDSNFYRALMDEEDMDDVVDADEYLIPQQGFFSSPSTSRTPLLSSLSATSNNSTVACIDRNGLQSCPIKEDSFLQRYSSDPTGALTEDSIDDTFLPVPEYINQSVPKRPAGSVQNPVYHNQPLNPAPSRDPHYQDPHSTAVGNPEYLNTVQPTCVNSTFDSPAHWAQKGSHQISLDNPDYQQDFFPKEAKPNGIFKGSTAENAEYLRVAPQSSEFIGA

For the molecule `CCN1CCC(n2cc([C@@H](Nc3cc(Cl)c4ncc(C#N)c(Nc5ccc(F)c(Cl)c5)c4c3)c3cccnc3)nn2)CC1` [Example 362, (S)-8-chloro-4-((3-chloro-4-fluorophenyl)amino)-6-(((1-(1-ethylpiperidin-4-yl)-1H-1,2,3-triazol-4-yl)(pyridin-3-yl)methyl)amino)-quinoline-3-carbonitrile], in the test with TNFα (setting [1]), the EC50 is 46 nM. In addition, in the test on TNFα (LPS-stimulated human monocytes), the “IC50/EC50 [nM]: EC50 (TNFα)” value turned out to be 46 nM. Further, the IC50 came out at 1 nM against Human Cot (IC50 HTRF, Cot HTRF (TR-FRET) biochemical assay) and 3980 nM on EGFR. At Human Cot (400 μM ATP), the “IC50/EC50 [nM]: IC50 (Cot)” value was determined as 1 nM.
Take `Cn1cc([C@@H](Nc2cc(Cl)c3ncc(C#N)c(Nc4ccc(F)c(Cl)c4)c3c2)c2cccnc2)nn1` [Example 406, (S)-8-chloro-4-((3-chloro-4-fluoro-phenyl)amino)-6-(((1-methyl-1H-1,2,3-triazol-4-yl)(pyridin-3-yl)-methyl)amino)quinoline-3-carbonitrile]: the 50% effective concentration (EC50) with TNFα (setting [1]) stood at 102 nM. Further, in the test with TNFα (LPS-stimulated human monocytes), the “IC50/EC50 [nM]: EC50 (TNFα)” value worked out at 102 nM. Besides, on Human Cot (400 μM ATP), the “IC50/EC50 [nM]: IC50 (Cot)” value is recorded as 3 nM. Besides, the IC50 on Human Cot (read-out: IC50 HTRF, Cot HTRF (TR-FRET) biochemical assay) is 3 nM; against EGFR, above 10000 nM.
In the case of `Cc1nc(F)ccc1[C@H](Nc1cc(Cl)c2ncc(C#N)c(NCC(C)(C)C)c2c1)c1cn(CCCO)nn1` [Example 986, (S)-8-chloro-6-(((6-fluoro-2-methylpyridin-3-yl)(1-(3-hydroxypropyl)-1H-1,2,3-triazol-4-yl)methyl)amino)-4-(neopentylamino)quinoline-3-carbonitrile], in the test with TNFα (Homo sapiens, Monocyte, read-out: EC50 TNF, LPS-stimulated human monocytes, TNFα TR-FRET), the EC50 came to 141 nM. Moreover, the IC50 against Human Cot (IC50 HTRF, Cot HTRF (TR-FRET KinEASE) biochemical assay, 400 μM ATP) stood at 5 nM.
For the molecule “(S)-6-(((1-(1,1′-bi(cyclopropan)]-1-yl)-1H- 1,2,3-triazol-4-yl)(1-methoxylsoquinolin- 5-yl)methyl)amino)-8-chloro-4- (neopentylamino)quinoline-3-carbonitrile [Example 931]”, in the test on TNFα (read-out: EC50 TNF, LPS-stimulated human monocytes, TNFα TR-FRET), the EC50 is 134 nM. Further, on Human Cot (read-out: IC50 HTRF, Cot HTRF (TR-FRET KinEASE) biochemical assay, 400 μM ATP), the IC50 was found to be 10 nM.
